Test results published in PubChem BioAssay (NCI).
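Test compounds were applied to cells in 96-well plates for 48 hours at 5 doses. TGI denotes the concentration required for complete inhibition of growth.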

Assays:
Experiment in all cases: NCI-60 cell line screen, 48 h
[1] = tested on: SK-OV-3 ovarian
[2] = tested on: SR leukemia
[3] = tested on: MDA-MB-435
[4] = tested on: HOP-62 NSCLC
[5] = tested on: SK-MEL-5 melanoma
[6] = tested on: HL-60(TB) leukemia
[7] = tested on: HT29 colon
[8] = tested on: HCC-2998 colon
[9] = tested on: A549 NSCLC
[10] = tested on: RPMI-8226 leukemia
[11] = tested on: A498 renal
[12] = tested on: NCI/ADR-RES ovarian
[13] = tested on: SK-MEL-2 melanoma
[14] = tested on: IGROV1 ovarian
[15] = tested on: MDA-MB-231 breast
[16] = tested on: HCT-15 colon
[17] = tested on: NCI-H522 lung
[18] = tested on: MOLT-4 leukemia
[19] = tested on: DU-145 prostate
[20] = tested on: HCT-116 colon
[21] = tested on: OVCAR-4 ovarian
[22] = tested on: SK-MEL-28 melanoma
[23] = tested on: SF-295 CNS
[24] = tested on: PC-3 prostate
[25] = tested on: SF-268 CNS
[26] = tested on: TK-10 renal
[27] = tested on: K-562 leukemia
[28] = tested on: KM12 colon
[29] = tested on: UACC-62 melanoma
[30] = tested on: KM20L2 colon
[31] = tested on: MALME-3M melanoma
[32] = tested on: 786-0 renal
[33] = tested on: HOP-92 NSCLC
[34] = tested on: SW-620 colon
[35] = tested on: NCI-H460 lung
[36] = tested on: OVCAR-8 ovarian
[37] = tested on: MDA-N
[38] = tested on: LOX IMVI melanoma
[39] = tested on: SN12C renal
[40] = tested on: COLO 205 colon
[41] = tested on: BT-549 breast
[42] = tested on: T-47D breast
[43] = tested on: DMS 114 small cell lung
[44] = tested on: OVCAR-3 ovarian
[45] = tested on: RXF-631 renal
[46] = tested on: SNB-19 CNS
[47] = tested on: NCI-H23 lung
[48] = tested on: SNB-78 CNS
[49] = tested on: HS 578T breast
[50] = tested on: CAKI-1 renal
[51] = tested on: DLD-1 colon
[52] = tested on: RXF 393 renal
[53] = tested on: SF-539 CNS
[54] = tested on: MCF7 breast
[55] = tested on: SNB-75 CNS
[56] = tested on: OVCAR-5 ovarian
[57] = tested on: ACHN renal
[58] = tested on: M14 melanoma
[59] = tested on: NCI-H226 lung
[60] = tested on: U251 CNS
[61] = tested on: EKVX NSCLC
[62] = tested on: M19-MEL melanoma
[63] = tested on: LXFL 529 NSCLC
[64] = tested on: HOP-18 NSCLC
[65] = tested on: UACC-257 melanoma
[66] = tested on: CCRF-CEM leukemia
[67] = tested on: UO-31 renal
[68] = tested on: DMS 273 small cell lung

In the case of `O=C(/C=C/c1ccc(OCCSCCCCCCCCCCSCCOc2ccc(/C=C/C(=O)c3ccc(Cl)cc3)cc2)cc1)c1ccc(Cl)cc1`, the TGI [1] is reported as > 92.8 µM, the TGI [2] is reported as > 100 µM and the TGI [3] is reported as > 100 µM. For the same molecule, the TGI [4] was 95.4 µM, the TGI [5] was > 100 µM and the TGI [6] was > 100 µM. The TGI [7] was > 100 µM, the TGI [8] was > 100 µM and the TGI [9] was > 100 µM. For the same molecule, the TGI [10] was > 100 µM, the TGI [11] was > 100 µM and the TGI [12] was > 100 µM. The TGI [13] was > 100 µM, the TGI [14] was > 100 µM and the TGI [15] was > 100 µM. For the same molecule, the TGI [16] was > 100 µM, the TGI [17] was > 100 µM and the TGI [18] was > 100 µM. The TGI [19] was > 100 µM, the TGI [20] was > 100 µM and the TGI [21] was > 100 µM. For the same molecule, the TGI [22] was > 100 µM, the TGI [23] was > 97.6 µM and the TGI [24] was > 100 µM. For the same molecule, the TGI [25] was > 100 µM, the TGI [26] was > 100 µM and the TGI [27] was > 100 µM. For the same molecule, the TGI [28] was > 100 µM, the TGI [29] was > 100 µM and the TGI [30] was > 100 µM. The TGI [31] was > 100 µM, the TGI [32] was > 100 µM and the TGI [33] was 81.6 µM. For the same molecule, the TGI [34] was > 100 µM, the TGI [35] was > 100 µM and the TGI [36] was > 100 µM. The TGI [37] was > 100 µM, the TGI [38] was > 100 µM and the TGI [39] was > 100 µM. For the same molecule, the TGI [40] was > 100 µM, the TGI [41] was > 100 µM and the TGI [42] was > 100 µM. For the same molecule, the TGI [43] was > 100 µM, the TGI [44] was > 100 µM and the TGI [45] was > 100 µM. For the same molecule, the TGI [46] was > 100 µM, the TGI [47] was > 100 µM and the TGI [48] was > 100 µM. For the same molecule, the TGI [49] was > 100 µM, the TGI [50] was > 100 µM and the TGI [51] was > 100 µM. For the same molecule, the TGI [52] was > 80.6 µM, the TGI [53] was > 81.7 µM and the TGI [54] was > 100 µM. The TGI [55] was 63.3 µM, the TGI [56] was > 100 µM and the TGI [57] was > 100 µM. The TGI [58] was > 100 µM, the TGI [59] was > 100 µM and the TGI [60] was > 100 µM. For the same molecule, the TGI [61] was > 100 µM, the TGI [62] was > 100 µM and the TGI [63] was > 100 µM. For the same molecule, the TGI [64] was > 100 µM, the TGI [65] was > 100 µM and the TGI [66] was > 100 µM. For the same molecule, the TGI [67] was > 100 µM and the TGI [68] was > 100 µM.
